Assay results reported in patent US9096605B2, “Pyrazolopyrimidine derivatives as PI3 kinase inhibitors” (GlaxoSmithKline LLC, priority 2011, dated 2015).

Key:
[1] = tested on: pAKT(Ser473) in MDA-MB-468 cells; assay: pAKT(Ser473) assay in MDA-MB-468 cells; assay type: cell-based; settings: Homo sapiens, 0.5 h, compound treatment 30 minutes, MSD ELISA phospho AKT(Ser473), given as ranges, read-out: Cell Activity—pAKT IC50 in MDA-MB-468
Protocol: pAKT(Ser473) Assay in MDA-MB-468 Cells
MDA-MB-468 cells were plated in 384-well flat clear bottom tissue culture plates (Corning #3701) at a density of 5000 cells per 0.057 cm2 in 48 ul of RPMI 1640 media supplemented with 10% fetal bovine serum (FBS). Cells were seeded with a Wellmate liquid handler (Matrix). Columns 1 through 23 were plated with cells and column 24 contained media alone. Cells were incubated at 37° C. with 5% CO2 for approximately 16-20 hours. Duplicate compound plates were prepared in 384-well polypropylene V-Bottom plates (Greiner #781280).
Compound titrations were made across the columns (A1-A20). 20 ul of compound was added to the first column and diluted into a 20 point curve with dimethylsulfoxide (DMSO, Thermo #TS2064) using a 2-fold dilution factor with a liquid handling robot (Hamilton). Columns 22 through 24 contained DMSO alone. Titrations were diluted 682-fold for compound treatment with 4 ul of compound added to 105 ul of RPMI media. Two ul of the diluted compound was added to the cell plates containing 48 ul of media using a multimek robot (Beckman Coulter). Final DMSO concentrations were 0.15%. Cells were treated with compound for 30 minutes at 37° C. with 5% CO2.
Following incubation, media was aspirated from dosed cell plates using an ELx405 plate washer (Bio-Tek) and 25 ul of 4° C. Meso Scale Discovery (MSD) lysis buffer with the addition of protease and phosphatase inhibitors (supplied in MSD kit #N31CB-1) was added to each well using a multidrop combi (Thermo). Precoated 4-spot per well MSD ELISA plates coated with total and phospho AKT(Ser473) antibody and BSA (supplied in kit) were blocked for 1 hour at room temperature with 35 ul per well of 1× MSD wash buffer+3% BSA (supplied in kit).
Blocked plates were washed 4 times with 100 ul per well of 1× Tris wash buffer (supplied in MSD kit) using an Elx405 plate washer (Bio-Tek). To each well, 20 ul of cell lysate was added using a multimek robot (Beckman Coulter) and the plate incubated at 4° C. overnight (˜12-24 hours). Following incubation, the ELISA plates were washed 4 times (100 ul/well) with 1× Tris wash buffer. Twenty microliters per well of 1× detection antibody (supplied in MSD kit) was added using a multidrop combi (Thermo), followed by a 2 hour incubation at room temperature. Detection antibody was aspirated and the plates washed 4 times (100 ul/well) with 1× Tris wash buffer. Read Buffer (supplied in MSD kit) was added at 1× (35 ul/well) at room temperature using a multidrop (Thermo). Relative luminescence units (RLU) were determined using a SECTOR™ Imager 6000 with MSD Workbench Software.
Concentration Response Curves for pAKT(Ser473):
For analysis of the pAKT(Ser473) concentration response curves, the data was normalized using Phospho AKT values divided by the sum of corresponding Total AKT and Phospho AKT values. The normalized values are plotted as the percent of the DMSO-treated control values on the corresponding plate. To determine IC50 values, the data is fit to a 4 parameter nonlinear sigmoidal dose response (variable slope) using GraphPad Prism version 4 for Windows, (GraphPad Software, San Diego Calif. USA). Criteria for curve fitting and IC50 determination include that the IC50 values from duplicate runs must be within 2 to 3-fold of each other, the Y min must be less than or equal to 30% of the DMSO-treated control and the Y max must range between 80-120%. Any data point equal to or greater than 40% of the curve was not utilized.

[2] = target: T1, PI3K-beta (Homo sapiens, UniProt P42338); assay: HTRF in vitro profiling assay for PI3K inhibition (beta isoform); assay type: biochemical; settings: PI3K-beta enzyme pIC50 range, 200 pM enzyme, 100 uM ATP, 10 uM PIP2, 150 mM NaCl, corrected pIC50, read-out: PI3K-b Enz Activity
T1 construct: made in house
Excerpt: HTRF In Vitro Profiling Assays for PI3K Inhibition
The PI3-Kinase profiling assays were developed to measure the compound-dependent inhibition of the alpha, beta, delta, and gamma isoforms of PI3K in an in vitro catalytic assay. This assay was developed and optimized from a kit produced by Upstate (Millipore catalog #33-017). Briefly, this procedure utilizes a pre-formed HTRF (Homogeneous Time-Resolved Fluorescence energy transfer) complex between four binding partners: 1) biotinylated PIP3, 2) GST tagged pleckstrin homology (PH) domain, 3) Europium labeled anti-GST monoclonal antibody, and 4) Streptavidin-Allophycocyanin (APC). The native PIP3 produced by PI 3-Kinase activity displaces biotin-PIP3 from the PH domain, resulting in the dissociation of the HTRF complex and a decrease in the fluorescence signal. The format of this assay is the same for all 4 isoforms of PI3K; the differences lie in the concentration of enzyme used to achieve the most robust signal. The alpha and delta assays are run at 400 pM enzyme; the beta assay is at 200 pM enzyme and the gamma assay is run at 1 nM enzyme. In addition, the alpha, beta and delta assays are run with 150 mM NaCl while the gamma assay is run in the absence of NaCl. The ATP concentration is 100 uM in the alpha, beta, and delta assays and 15 uM ATP in the gamma assay. All reactions are run at 10 uM PIP2
Compounds are serially diluted (3-fold in 100% DMSO) across a 384-well polypropylene mother plate from column 1 to column 12 and column 13 to column 24, to yield 11 concentrations for each test compound. Columns 6 and 18 contain only DMSO. Once titrations are made, […] is transferred to a 384-well low-volume assay plate (Greiner 784076). This assay plate contains three pharmacological controls (known PI3K inhibitors) and 3 assay controls: (1) Enzyme without inhibitor; (2) Buffer minus enzyme, and (3) Buffer minus enzyme plus native PIP3. DMSO is stamped into all wells of columns 6 and 18. PIP3 is added at 40 μM in 1× Reaction buffer (1 μL of 200 μM PIP3) to alternating rows of column 18 (wells 18 B, D, F, H, J, L, N, P). The no-enzyme control reactions are run in wells 18 A, C, E, G, I, K, M, O (0.1 μL of 100% DMSO).
The PI3-Kinase profiling assay was optimized using the HTRF kit provided by Upstate (Millipore). The assay kit contains seven reagents: 1) 4× Reaction Buffer; 2) native PIP2 (substrate); 3) Stop A (EDTA); 4) Stop B (Biotin-PIP3); 5) Detection Mix A (Streptavidin-APC); 6) Detection Mix B (Eu-labeled Anti-GST plus GST-tagged PH-domain); 7) Detection Mix C (KF). In addition, the following items were obtained or purchased: PI3Kinase (prepared by GSK BR&AD), dithiothreitol (Sigma, D-5545), Adenosine-5′-triphosphate (ATP, Teknova cat. # A0220), native PIP3 (1,2-dioctanoyl-sn-glycero-3-[phosphoinositil-3,4,5-triphosphate]tetraammonium salt (Avanti polar lipids, 850186P), DMSO (Sigma, 472301).
PI3Kinase Reaction Buffer is prepared by diluting the stock 1:4 with de-ionized water. Freshly prepared DTT is added at a final concentration of 5 mM on the day of use. Enzyme addition and compound pre-incubation are initiated by the addition of 2.5 μL of PI3K (at twice its final concentration) in 1× reaction buffer to all wells using a Multidrop Combi. Plates are incubated at room temperature for 15 minutes. Reactions are initiated by addition of 2.5 μL of 2× substrate solution (PIP2 and ATP in 1× reaction buffer) using a Multidrop Combi. Plates are incubated at room temperature for one hour. Reactions are quenched by the addition of 2.5 μL of stop solution (Stop A and Stop B pre-mixed at a ratio of 5:1, respectively) to all wells using the Multidrop Combi. […]

T1 sequence (P42338 whole entry, canonical isoform): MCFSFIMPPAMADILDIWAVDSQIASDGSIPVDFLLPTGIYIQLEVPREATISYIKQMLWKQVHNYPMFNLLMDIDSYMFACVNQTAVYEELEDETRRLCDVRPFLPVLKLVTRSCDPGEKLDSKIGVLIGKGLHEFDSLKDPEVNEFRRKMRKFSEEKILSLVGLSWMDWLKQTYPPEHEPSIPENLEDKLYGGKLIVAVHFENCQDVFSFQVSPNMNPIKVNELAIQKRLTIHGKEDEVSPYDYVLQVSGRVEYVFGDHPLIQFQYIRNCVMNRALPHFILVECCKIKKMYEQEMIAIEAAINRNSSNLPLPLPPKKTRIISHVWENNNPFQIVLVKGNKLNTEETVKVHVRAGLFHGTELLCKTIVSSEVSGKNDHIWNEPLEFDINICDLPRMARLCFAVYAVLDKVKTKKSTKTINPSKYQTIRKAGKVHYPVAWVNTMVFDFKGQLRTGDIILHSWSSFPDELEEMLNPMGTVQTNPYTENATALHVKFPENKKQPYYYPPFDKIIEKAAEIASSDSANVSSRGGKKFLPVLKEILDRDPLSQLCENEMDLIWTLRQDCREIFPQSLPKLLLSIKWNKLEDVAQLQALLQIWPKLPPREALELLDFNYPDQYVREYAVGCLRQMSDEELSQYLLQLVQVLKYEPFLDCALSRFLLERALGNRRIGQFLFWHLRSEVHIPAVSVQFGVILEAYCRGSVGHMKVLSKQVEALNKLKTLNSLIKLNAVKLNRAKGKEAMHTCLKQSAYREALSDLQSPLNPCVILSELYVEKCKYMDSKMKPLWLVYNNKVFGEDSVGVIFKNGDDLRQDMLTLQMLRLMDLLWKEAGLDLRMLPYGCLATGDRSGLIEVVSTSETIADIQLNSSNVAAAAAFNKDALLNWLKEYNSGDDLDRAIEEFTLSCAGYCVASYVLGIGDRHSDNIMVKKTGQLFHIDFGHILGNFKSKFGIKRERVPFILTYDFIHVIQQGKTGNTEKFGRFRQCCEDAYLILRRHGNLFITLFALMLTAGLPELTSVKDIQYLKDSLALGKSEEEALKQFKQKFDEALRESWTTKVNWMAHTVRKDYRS
T1 sequence (P27986 whole entry partner, canonical isoform): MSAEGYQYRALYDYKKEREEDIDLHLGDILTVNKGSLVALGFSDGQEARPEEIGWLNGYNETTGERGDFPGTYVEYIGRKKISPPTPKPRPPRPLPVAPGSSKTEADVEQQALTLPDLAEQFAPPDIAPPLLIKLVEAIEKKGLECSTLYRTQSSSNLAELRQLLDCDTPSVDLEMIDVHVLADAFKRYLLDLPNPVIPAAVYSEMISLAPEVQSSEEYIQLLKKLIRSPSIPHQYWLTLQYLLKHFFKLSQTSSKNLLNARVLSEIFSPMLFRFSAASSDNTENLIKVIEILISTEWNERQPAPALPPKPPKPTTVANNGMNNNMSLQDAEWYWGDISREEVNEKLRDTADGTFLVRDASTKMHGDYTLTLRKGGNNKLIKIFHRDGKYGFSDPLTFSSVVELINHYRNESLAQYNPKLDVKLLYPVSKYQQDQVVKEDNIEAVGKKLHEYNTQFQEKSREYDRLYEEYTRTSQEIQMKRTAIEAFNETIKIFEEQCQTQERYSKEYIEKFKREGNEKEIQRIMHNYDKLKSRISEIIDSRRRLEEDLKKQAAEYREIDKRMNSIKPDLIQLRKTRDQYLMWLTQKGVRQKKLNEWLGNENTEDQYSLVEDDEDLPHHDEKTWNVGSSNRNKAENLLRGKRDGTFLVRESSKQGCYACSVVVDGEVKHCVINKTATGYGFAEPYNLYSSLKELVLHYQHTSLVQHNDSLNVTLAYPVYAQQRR

`Cc1nn2c(O)cc(N3CCOCC3)nc2c1Cc1cccc(C(F)(F)F)c1C` [Example 1, 2-methyl-3-(2-methyl-3-(trifluoromethyl)benzyl)-5-morpholinopyrazolo[1,5-a]pyrimidin-7-ol] was tested, and the IC50 [1] was 1 to 5 µM and the IC50 [2] was 0.000126 to 0.001 µM.

`Cc1nn2c(O)cc(N3CCOC(C)C3)nc2c1Cc1cccc(C(F)(F)F)c1C` (stereo not drawn) [Example 2, 2-methyl-3-(2-methyl-3-(trifluoromethyl)benzyl)-5-(2-methylmorpholino)pyrazolo[1,5-a]pyrimidin-7-ol] gave an IC50 [1] of 1 to 5 µM and an IC50 [2] of 0.00126 to 0.01 µM.

`Cc1nn2c(O)cc(N3CCOCC3=O)nc2c1Cc1cccc(C(F)(F)F)c1C` [Example 3, 4-(7-hydroxy-2-methyl-3-(2-methyl-3-(trifluoromethyl)benzyl)pyrazolo[1,5-a]pyrimidin-5-yl)morpholin-3-one] gave an IC50 [1] of over 20 µM and an IC50 [2] of 0.126 to 1.26 µM.

Work on `Cc1nn2c(O)cc(C3CCOCC3)nc2c1Cc1cccc(C(F)(F)F)c1C` [Example 4, 2-methyl-3-(2-methyl-3-(trifluoromethyl)benzyl)-5-(tetrahydro-2H-pyran-4-yl)pyrazolo[1,5-a]pyrimidin-7-ol] yielded an IC50 [1] of 6 to 10 µM and an IC50 [2] of 0.00126 to 0.01 µM.

`Cc1nn2ccc(C3CCOCC3)nc2c1Cc1cccc(C(F)(F)F)c1C` [Example 5, 2-methyl-3-(2-methyl-3-(trifluoromethyl)benzyl)-5-(tetrahydro-2H-pyran-4-yl)pyrazolo[1,5-a]pyrimidine] showed an IC50 [1] of over 20 µM and an IC50 [2] of 0.126 to 1.26 µM.

Work on `Cc1nn2c(N)cc(-c3ccncc3)nc2c1Cc1cccc(C(F)(F)F)c1C` [Example 6, 2-methyl-3-(2-methyl-3-(trifluoromethyl)benzyl)-5-(pyridin-4-yl)pyrazolo[1,5-a]pyrimidin-7-amine] yielded an IC50 [2] of 0.0126 to 0.1 µM.

`Oc1cc(N2CCOCC2)nc2c(Cc3cccc(Cl)c3Cl)c(C(F)(F)F)nn12` [Example 7, 3-(2,3-dichlorobenzyl)-5-morpholino-2-(trifluoromethyl)pyrazolo[1,5-a]pyrimidin-7-ol] gave an IC50 [1] of 1 to 5 µM and an IC50 [2] of 0.000126 to 0.001 µM.

`CC1CN(c2cc(O)n3nc(C(F)(F)F)c(Cc4cccc(Cl)c4Cl)c3n2)CCO1` (stereo not drawn) [Example 8, 3-(2,3-dichlorobenzyl)-5-(2-methylmorpholino)-2-(trifluoromethyl)pyrazolo[1,5-a]pyrimidin-7-ol] gave an IC50 [1] of 6 to 10 µM and an IC50 [2] of 0.00126 to 0.01 µM.

`Oc1cc(C2CCOCC2)nc2c(Cc3cccc(Cl)c3Cl)c(C(F)(F)F)nn12` [Example 9, 3-(2,3-dichlorobenzyl)-5-(tetrahydro-2H-pyran-4-yl)-2-(trifluoromethyl)pyrazolo[1,5-a]pyrimidin-7-ol] was tested, and the IC50 [1] was over 20 µM and the IC50 [2] was 0.00126 to 0.01 µM.

In the case of `Cc1c(Cc2cnn3c(Cl)cc(N4CCOCC4)nc23)cccc1C(F)(F)F` [Example 10, 4-(7-chloro-3-(2-methyl-3-(trifluoromethyl)benzyl)pyrazolo[1,5-a]pyrimidin-5-yl)morpholine], the IC50 [2] is reported as 0.126 to 1.26 µM.

`Cc1c(Cc2cnn3c(O)cc(N4CCOCC4)nc23)cccc1C(F)(F)F` [Example 11, 3-(2-methyl-3-(trifluoromethyl)benzyl)-5-morpholinopyrazolo[1,5-a]pyrimidin-7-ol] gave an IC50 [1] of 1 to 5 µM and an IC50 [2] of 0.00126 to 0.01 µM.

Compound `COc1cc(N2CCOCC2)nc2c(Cc3cccc(C(F)(F)F)c3C)cnn12` [Example 12, 4-(7-methoxy-3-(2-methyl-3-(trifluoromethyl)benzyl)pyrazolo[1,5-a]pyrimidin-5-yl)morpholine] has an IC50 [2] of 0.126 to 1.26 µM.

With `CC(=O)Nc1cc(N2CCOCC2)nc2c(Cc3cccc(C(F)(F)F)c3C)c(C)nn12` [Example 18, N-[2-methyl-3-{[2-methyl-3-(trifluoromethyl)phenyl]methyl}-5-(4-morpholinyl)pyrazolo[1,5-a]pyrimidin-7-yl]acetamide] the IC50 [2] was 0.126 to 1.26 µM.

Compound `Cc1nn2c(N3CCOCC3)cc(N3CCOCC3)nc2c1Cc1cccc2ccccc12` [Example 28, 4,4′-(2-methyl-3-(naphthalen-1-ylmethyl)pyrazolo[1,5-a]pyrimidine-5,7-diyl)dimorpholine] has an IC50 [2] of 0.126 to 1.26 µM.

Work on `COc1cc(-c2ccncc2)nc2c(Cc3cccc(Cl)c3Cl)c(C)nn12` [Example 34, 3-(2,3-dichlorobenzyl)-7-methoxy-2-methyl-5-(pyridin-4-yl)pyrazolo[1,5-a]pyrimidine] yielded an IC50 [2] of 0.126 to 1.26 µM.

With `Cc1nn2c(-n3ccnc3)cc(N3CCOCC3)nc2c1Cc1cccc2ccccc12` [Example 44, 4-(7-(1H-imidazol-1-yl)-2-methyl-3-(naphthalen-1-ylmethyl)pyrazolo[1,5-a]pyrimidin-5-yl)morpholine] the IC50 [2] was 0.126 to 1.26 µM.

For `Cc1ccccc1Cc1c(C)nn2c(-c3cn[nH]c3)cc(-c3ccncc3)nc12` [Example 49, 2-methyl-3-(2-methylbenzyl)-7-(1H-pyrazol-4-yl)-5-(pyridin-4-yl)pyrazolo[1,5-a]pyrimidine], the IC50 [2] was 0.126 to 1.26 µM.

For `Cc1ccccc1Cc1c(C)n(C)n2c(=O)cc(-c3ccncc3)nc12` [Example 51, 1,2-dimethyl-3-(2-methylbenzyl)-5-(pyridin-4-yl)pyrazolo[1,5-a]pyrimidin-7(1H)-one], the IC50 [2] was 0.126 to 1.26 µM.
